{
  "source": "patent US20210161913A1",
  "about": "“OXYGENATED CHOLESTEROL SULFATES FOR THERAPY OF DISORDERS CAUSED BY AT LEAST ONE OF ATTENUATED LEPTIN ACTIVITY AND A LIPID STORAGE DISORDER” (Virginia Commonwealth University, priority 2015, published 2021)",
  "key": {"THP-1 macrophages": {"tested_on": "THP-1 macrophages", "details": "Ma et al., 2008, Ren et al., 2007, Xu et al., 2010; cited from earlier work"}, "primary hepatocytes": {"tested_on": "primary hepatocytes", "details": "Ma et al., 2008, Ren et al., 2007, Xu et al., 2010; cited from earlier work"}, "[1]": {"tested_on": "leptin-deficient (obese fa/fa) Zucker rats", "test": "Quantification of hepatic lipids in Zucker rats", "assay_type": "in vivo, rat", "details": "21 days", "from_the_text": "(§1) To examine the effect of 25HC3S on lipid accumulation in sera and in the liver in a leptin-deficient (obese fa/fa) animal model (Zucker rats), 11 week old Zucker rats (Charles River, Wilmington, Mass.) were randomly assigned into four groups. Obese fa/fa Zucker rats have a defective leptin receptor and serve as a general animal model for deficiencies in leptin activity, whether due to low leptin levels, congenital defects in the leptin receptor or acquired leptin resistance, since all result in inadequate or faulty leptin activity. Further, these animals develop unwanted lipid accumulation after several weeks of life due to a genetic mutation in the leptin receptor. All rats were housed under identical conditions with a 12-hour light/12-hour dark cycle and given free access to water and food. The rats (n=5 in each treatment) were gavaged orally with vehicle (10% cellulose) or 25HC3S (10 mg/kg, 30 mg/kg, and 100 mg/kg) once a day for 21 days and fasted overnight (14 hrs) before collection of samples. To compare with gavage administration, other rats (n=10-17 in each treatment) were intraperitoneally injected with vehicle solution (ethanol/PBS; vehicle) or 25HC3S (50 mg/kg) once every three days for 6 weeks and fasted overnight (14 hrs). Blood samples were collected before sacrifice. Serum triglyceride (TG), total cholesterol (CHOL), high density lipoprotein-cholesterol (HDL-C), alkaline phosphatase (ALK), alanine aminotransferase (ALT), and aspartate aminotransferase (AST) were measured using standard enzymatic techniques. Lipoprotein profiles in sera were analyzed by HPLC in the following descriptions.\nLiver tissues were homogenized, and the hepatic total lipids were extracted using a mixture of chloroform and methanol (2:1, v:v). After the extracts were filtered, 0.2 ml of each was evaporated to dryness and dissolved in 100 μl of isopropanol containing 10% Triton™ X-100 for cholesterol assay (Wako Chemicals USA, Richmond, Va.), 100 μl of NEFA solution (0.5 g of EDTA-Naz, 2 g of Triton™ X-100, 0.76 ml of 1N NaOH, and 0.5 g of sodium azide/1, pH 6.5) for the free fatty acid assay (Wako Chemicals USA, Richmond, Va.), or 100 μl of isopropanol only for the triglyceride assay (Fisher Scientific, Pittsburgh, Pa.). Each lipid concentration was normalized by liver weight."}, "[2]": {"tested_on": "leptin-deficient (obese fa/fa) Zucker rats", "test": "Serum lipid levels in leptin-deficient (obese fa/fa) Zucker rats after 25HC3S administration", "assay_type": "in vivo, rat", "from_the_text": "as §1, with “descriptions. The lipoproteins, triglycerides and cholesterol in very low density lipoprotein (VLDL), low-density lipoprotein (LDL) and high-density lipoprotein (HDL) were measured by gel filtration using HPLC as previously described (Bai et al., 2012). Briefly, rat serum (100 μl) was eluted with a solvent of 154 mM NaCl with 0.1 mM EDTA (pH 8.0) at a flow rate of 0.2 ml/min via a Pharmacia Superose 6 HR 10/30 FPLC column, and the signal was read at a wavelength of 280 nm. Fractions were collected for 1.2 min each from 20 min up to 100 min. 180 μl of each fraction plus 20 μl of a 10× solution of Wako Total Cholesterol E Reagent (Wako Chemicals USA, Richmond, Va.) was incubated in a 96-well plate at 37° C. for 3 hrs in the dark to analyze cholesterol levels, and the absorbance was read at a wavelength of 595 nm. 2 μl of each fraction plus 200 μl of Infinity™ Triglycerides Reagent (Fisher Scientific, Pittsburgh, Pa.) was incubated in a 96-well plate at 37° C. for 5 minutes in dark to analyze triglyceride levels, and the absorbance was read at a wavelength of 500 nm. The lipoprotein profile was monitored as an internal control.” for “descriptions.”"}, "[3]": {"tested_on": "leptin-deficient (obese fa/fa) Zucker rats", "test": "Liver histo-morphology (HE and Oil Red O staining), hepatic lipidosis in Zucker rats", "assay_type": "in vivo, rat", "set-up": "key to Force Rank (Oil Red O): 1 = least severe; 5 = most severe", "details": "for Force Rank (Oil Red O) / Severity of Hepatic Lipidosis: N = 5 males", "from_the_text": "as §1, with “descriptions. Three specimens from different regions of the liver of each rat were collected and fixed in 4% paraformaldehyde in 0.1 M phosphate buffer at room temperature overnight. The regions of the specimens were standardized for all rats. The paraffin-embedded tissue sections (4 μm) were stained with hematoxylin and eosin (HE). 3-3′-Diaminobenzidine (DAB) was used as the chromogen, and hematoxylin was used as the nuclear counterstain. Determination of total intracellular lipids: Oil Red O staining of intracellular neutral lipids: the liver slides were fixed with 3.7% formaldehyde in PBS for 30 min followed by two washes with phosphate-buffered saline (PBS). The cells were stained with 0.2% Oil Red O in 60% 2-propanol for 10 min and washed three times with PBS. The images were taken with the use of a microscope (Olympus, Tokyo, Japan) equipped with image recorder under 40× lenses. All slides of tissue were qualitatively examined by light microscopy by a board certified veterinary pathologist. The incidence and severity of the lesions were scored. Lesions were also assessed for duration and distribution.” for “descriptions.”"}, "[4]": {"details": "gavage 10 mg/kg, normalized by liver weight"}, "[5]": {"details": "gavage administration once a day for 21 days, fasted overnight, vs vehicle"}, "[6]": {"details": "intraperitoneal administration, 50 mg/kg once every three days"}},
  "data": [
    {"smiles": "CC(CCCC(C)(C)O)C1CCC2C3CC=C4CC(OS(=O)(=O)O)CCC4(C)C3CCC12C", "note": "(stereo not shown) [25HC3S, 5-cholesten, 3-, 25-diol, 3-sulfate]", "values": [
      {"measurement": "lipid accumulation", "setting": "THP-1 macrophages", "result": "reduce lipid accumulation"},
      {"measurement": "lipid accumulation", "setting": "primary hepatocytes", "result": "reduce lipid accumulation"},
      {"measurement": "liver free cholesterol concentration", "setting": "[1]; administration of 25HC3S", "result": "not affected"},
      {"measurement": "reduction of liver tissue free fatty acids", "setting": "[1]; [4]", "result": 26, "unit": "%"},
      {"measurement": "reduction of liver tissue total cholesterol", "setting": "[1]; [4]", "result": 25, "unit": "%"},
      {"measurement": "reduction of liver tissue triglyceride", "setting": "[1]; [4]", "result": 43, "unit": "%"},
      {"measurement": "decrease of plasma CHOL", "setting": "[2]; [5]", "result": 17, "unit": "%"},
      {"measurement": "decrease of plasma TG", "setting": "[2]; [5]", "result": 30, "unit": "%"},
      {"measurement": "change in HDL levels", "setting": "[2]; gavage administration, 21 days", "result": "no significant change"},
      {"measurement": "change in LDL levels", "setting": "[2]; gavage administration, 21 days", "result": "no significant change"},
      {"measurement": "serum HDL", "setting": "[2]; [6]", "result": "significantly decreased"},
      {"measurement": "serum total cholesterol", "setting": "[2]; [6]", "result": "significantly decreased"},
      {"measurement": "serum triglyceride", "setting": "[2]; [6]", "result": "significantly decreased"},
      {"measurement": "Force Rank (Oil Red O)", "setting": "[3]; 10 mg/kg/day gavage", "result": 4},
      {"measurement": "Severity of Hepatic Lipidosis", "setting": "[3]; 10 mg/kg/day gavage", "result": "Mild to moderate"},
      {"measurement": "Force Rank (Oil Red O)", "setting": "[3]; 30 mg/kg/day gavage", "result": 3},
      {"measurement": "Severity of Hepatic Lipidosis", "setting": "[3]; 30 mg/kg/day gavage", "result": "Mild to moderate"},
      {"measurement": "Force Rank (Oil Red O)", "setting": "[3]; 50 mg/kg IP every 3 days", "result": 2},
      {"measurement": "Severity of Hepatic Lipidosis", "setting": "[3]; 50 mg/kg IP every 3 days", "result": "Mild"},
      {"measurement": "Force Rank (Oil Red O)", "setting": "[3]; 100 mg/kg/day gavage", "result": 1},
      {"measurement": "Severity of Hepatic Lipidosis", "setting": "[3]; 100 mg/kg/day gavage", "result": "Mild"},
      {"measurement": "lipid inclusions in hepatocytes (HE stained liver sections)", "setting": "[3]; 10, 30 and 100 mg/kg PO (FIGS. 3B, C, D) vs control rats", "result": "significantly decreased"}
    ]}
  ]
}
